Test results from US11807644B2 (PMV Pharmaceuticals, Inc., priority 2020, dated 2023).

biological target: T1, recombinant His-tag Y220C p53 DBD protein (Homo sapiens, UniProt P04637, Y220C); test: In vitro DNA binding activity assay (TR-FRET): binding of His-tag Y220C p53 DBD to biotin-labeled consensus DNA; assay type: biochemical; conditions: SC150 = concentration to increase DNA binding by […], His-tag Y220C p53 DBD, biotin-labeled consensus DNA
T1 construct: recombinant His-tag Y220C p53 DBD protein (amino acids #˜94-312)

| Y220C SC150 (μM) | Structure (SMILES) |
| --- | --- |
| **** (**** = 1 μM ≤ SC150 < 10 μM) | Cn1ccc(-c2cc3c(NC4CCS(=O)(=O)CC4)cccc3n2CC(F)(F)F)n1 [Compound 14B, 4-{[2-(1-methyl-1H-pyrazol-3-yl)-1-(2,2,2-trifluoroethyl)-1H-indol-4-yl]amino}-1λ^6-thiane-1,1-dione] |
| **** (**** = 1 μM ≤ SC150 < 10 μM) | O=S1(=O)CCC(Nc2cccc3c2cc(-c2cnn(CCO)c2)n3CC(F)(F)F)CC1 [Compound 15B, 4-({2-[1-(2-hydroxyethyl)-1H-pyrazol-4-yl]-1-(2,2,2-trifluoroethyl)-1H-indol-4-yl}amino)-1λ^6-thiane-1,1-dione] |
| **** (**** = 1 μM ≤ SC150 < 10 μM) | O=S1(=O)CCC(Nc2cccc3c2cc(-c2cnn(Cc4cccnc4)c2)n3CC(F)(F)F)CC1 [Compound 16B, 4-[(2-{1-[(pyridin-3-yl)methyl]-1H-pyrazol-4-yl}-1-(2,2,2-trifluoroethyl)-1H-indol-4-yl)amino]-1λ^6-thiane-1,1-dione] |
| **** (**** = 1 μM ≤ SC150 < 10 μM) | CN1CCC(Nc2cccc3c2cc(-c2cc(C(N)c4ccccc4)[nH]n2)n3CC(F)(F)F)CC1 (stereo not drawn) [Compound 20B, 2-{5-[amino(phenyl)methyl]-1H-pyrazol-3-yl}-N-(1-methylpiperidin-4-yl)-1-(2,2,2-trifluoroethyl)-1H-indol-4-amine] |
| **** (**** = 1 μM ≤ SC150 < 10 μM) | CN1CCC(Nc2cccc3c2cc(-c2cc(N)[nH]n2)n3CC(F)(F)F)CC1 [Compound 21B, 2-(5-amino-1H-pyrazol-3-yl)-N-(1-methylpiperidin-4-yl)-1-(2,2,2-trifluoroethyl)-1H-indol-4-amine] |
| ** (** = 0.1 μM ≤ SC150 < 0.5 μM) | CN1CCC(Nc2cccc3c2cc(-c2cc(CNc4ccc(S(C)(=O)=O)cc4)[nH]n2)n3CC(F)(F)F)CC1 [Compound 22B, 2-(5-{[(4-methanesulfonylphenyl)amino]methyl}-1H-pyrazol-3-yl)-N-(1-methylpiperidin-4-yl)-1-(2,2,2-trifluoroethyl)-1H-indol-4-amine] |
| **** (**** = 1 μM ≤ SC150 < 10 μM) | CNc1cc(-c2cc3c(NC4CCN(C)CC4)cccc3n2CC(F)(F)F)n[nH]1 [Compound 23B, 2-[5-(methylamino)-1H-pyrazol-3-yl]-N-(1-methylpiperidin-4-yl)-1-(2,2,2-trifluoroethyl)-1H-indol-4-amine] |

same assay, conditions: concentration to increase DNA binding by […], incubated at either 27° C. or 29° C. for 60 min

| SC150 (μM) | Structure (SMILES) |
| --- | --- |
| +++ (+++ = 5 μM ≤ SC150 < 10 μM) | CC(C)(C)c1ccc(C(=O)NCc2ccc(-c3cc4c(NC5CCS(=O)(=O)CC5)cccc4n3CC(F)(F)F)cc2)cc1 [Compound 15A, 4-tert-butyl-N-[(4-{4-[(1,1-dioxo-1λ^6-thian-4-yl)amino]-1-(2,2,2-trifluoroethyl)-1H-indol-2-yl}phenyl)methyl]benzamide] |
| ++ (++ = 2 μM ≤ SC150 < 5 μM) | N#Cc1ccc(C(=O)NCc2ccc(-c3cc4c(NC5CCS(=O)(=O)CC5)cccc4n3CC(F)(F)F)cc2)cc1 [Compound 16A, 4-cyano-N-[(4-{4-[(1,1-dioxo-1λ^6-thian-4-yl)amino]-1-(2,2,2-trifluoroethyl)-1H-indol-2-yl}phenyl)methyl]benzamide] |
| ++ (++ = 2 μM ≤ SC150 < 5 μM) | O=C(NCc1ccc(-c2cc3c(NC4CCS(=O)(=O)CC4)cccc3n2CC(F)(F)F)cc1)c1ccc(Cl)cc1 [Compound 17A, 4-chloro-N-[(4-{4-[(1,1-dioxo-1λ^6-thian-4-yl)amino]-1-(2,2,2-trifluoroethyl)-1H-indol-2-yl}phenyl)methyl]benzamide] |
| + (+ = 0 μM ≤ SC150 < 2 μM) | CC(C)(C#N)c1ccc(NC(=O)NCc2ccc(-c3cc4c(NC5CCS(=O)(=O)CC5)cccc4n3CC(F)(F)F)cc2)cn1 [Compound 18A, 3-[6-(1-cyano-1-methylethyl)pyridin-3-yl]-1-[(4-{4-[(1,1-dioxo-1λ^6-thian-4-yl)amino]-1-(2,2,2-trifluoroethyl)-1H-indol-2-yl}phenyl)methyl]urea] |
| + (+ = 0 μM ≤ SC150 < 2 μM) | O=C(NCc1ccc(-c2cc3c(NC4CCS(=O)(=O)CC4)cccc3n2CC(F)(F)F)cc1)Nc1ccccc1 [Compound 19A, 3-[(4-{4-[(1,1-dioxo-1λ^6-thian-4-yl)amino]-1-(2,2,2-trifluoroethyl)-1H-indol-2-yl}phenyl)methyl]-1-phenylurea] |
| ++++ (++++ = 10 μM ≤ SC150 < 35 μM) | O=C(O)c1cccc(-c2cc3c(NC4CCS(=O)(=O)CC4)cccc3n2CC(F)(F)F)c1 [Compound 20A, 3-{4-[(1,1-dioxo-1λ^6-thian-4-yl)amino]-1-(2,2,2-trifluoroethyl)-1H-indol-2-yl}benzoic acid] |
| ++ (++ = 2 μM ≤ SC150 < 5 μM) | CN(C)c1cccc(-c2cc3c(NC4CCS(=O)(=O)CC4)cccc3n2CC(F)(F)F)c1 [Compound 21A, 4-({2-[3-(dimethylamino)phenyl]-1-(2,2,2-trifluoroethyl)-1H-indol-4-yl}amino)-1λ^6-thiane-1,1-dione] |
| ++ (++ = 2 μM ≤ SC150 < 5 μM) | CNC(=O)c1cccc(-c2cc3c(NC4CCS(=O)(=O)CC4)cccc3n2CC(F)(F)F)c1 [Compound 22A, 3-{4-[(1,1-dioxo-1λ^6-thian-4-yl)amino]-1-(2,2,2-trifluoroethyl)-1H-indol-2-yl}-N-methylbenzamide] |
| +++ (+++ = 5 μM ≤ SC150 < 10 μM) | O=S1(=O)CCC(Nc2cccc3c2cc(-c2ccc(CN4CCOCC4)cc2)n3CC(F)(F)F)CC1 [Compound 24A, 4-[(2-{4-[(morpholin-4-yl)methyl]phenyl}-1-(2,2,2-trifluoroethyl)-1H-indol-4-yl)amino]-1λ^6-thiane-1,1-dione] |

The next lines start with the compound.

| Structure (SMILES) | SC150 (μM) |
| --- | --- |
| NC(=O)c1ccc(-c2cc3c(NC4CCS(=O)(=O)CC4)cccc3n2CC(F)(F)F)cc1 [Compound 1A, 4-{4-[(1,1-dioxo-1λ^6-thian-4-yl)amino]-1-(2,2,2-trifluoroethyl)-1H-indol-2-yl}benzamide] | ++++ (++++ = 10 μM ≤ SC150 < 35 μM) |
| NCc1ccc(-c2cc3c(NC4CCS(=O)(=O)CC4)cccc3n2CC(F)(F)F)cc1 [Compound 2A, 4-({2-[4-(aminomethyl)phenyl]-1-(2,2,2-trifluoroethyl)-1H-indol-4-yl}amino)-1λ^6-thiane-1,1-dione] | +++ (+++ = 5 μM ≤ SC150 < 10 μM) |
| CNCc1ccc(-c2cc3c(NC4CCS(=O)(=O)CC4)cccc3n2CC(F)(F)F)cc1 [Compound 3A, 4-[(2-{4-[(methylamino)methyl]phenyl}-1-(2,2,2-trifluoroethyl)-1H-indol-4-yl)amino]-1λ^6-thiane-1,1-dione] | +++ (+++ = 5 μM ≤ SC150 < 10 μM) |
| CN(Cc1ccc(-c2cc3c(NC4CCS(=O)(=O)CC4)cccc3n2CC(F)(F)F)cc1)C(=O)OC(C)(C)C [Compound 4A, tert-butyl N-[(4-{4-[(1,1-dioxo-1λ^6-thian-4-yl)amino]-1-(2,2,2-trifluoroethyl)-1H-indol-2-yl}phenyl)methyl]-N-methylcarbamate] | +++ (+++ = 5 μM ≤ SC150 < 10 μM) |
| CNC(=O)c1ccc(-c2cc3c(NC4CCS(=O)(=O)CC4)cccc3n2CC(F)(F)F)cc1 [Compound 5A, 4-{4-[(1,1-dioxo-1λ^6-thian-4-yl)amino]-1-(2,2,2-trifluoroethyl)-1H-indol-2-yl}-N-methylbenzamide] | ++++ (++++ = 10 μM ≤ SC150 < 35 μM) |
| CC(C)(C)OC(=O)NCc1ccc(-c2cc3c(NC4CCS(=O)(=O)CC4)cccc3n2CC(F)(F)F)cc1 [Compound 6A, tert-butyl N-[(4-{4-[(1,1-dioxo-1λ^6-thian-4-yl)amino]-1-(2,2,2-trifluoroethyl)-1H-indol-2-yl}phenyl)methyl]carbamate] | ++ (++ = 2 μM ≤ SC150 < 5 μM) |
| CC(C)(C#N)c1ccc(NCc2ccc(-c3cc4c(NC5CCS(=O)(=O)CC5)cccc4n3CC(F)(F)F)cc2)cn1 [Compound 7A, 2-(5-{[(4-{4-[(1,1-dioxo-1λ^6-thian-4-yl)amino]-1-(2,2,2-trifluoroethyl)-1H-indol-2-yl}phenyl)methyl]amino}pyridine-2-yl)-2-methylpropanenitrile] | ++ (++ = 2 μM ≤ SC150 < 5 μM) |
| CS(=O)(=O)c1ccc(NCc2ccc(-c3cc4c(NC5CCS(=O)(=O)CC5)cccc4n3CC(F)(F)F)cc2)cc1 [Compound 8A, 4-{[2-(4-{[(4-methanesulfonylphenyl)amino]methyl}phenyl)-1-(2,2,2-trifluoroethyl)-1H-indol-4-yl]amino}-1λ^6-thiane-, 1-dione] | + (+ = 0 μM ≤ SC150 < 2 μM) |
| O=S1(=O)CCC(Nc2cccc3c2cc(-c2ccc(CNc4ccccc4)cc2)n3CC(F)(F)F)CC1 [Compound 9A, 4-[(2-{4-[(phenylamino)methyl]phenyl}-1-(2,2,2-trifluoroethyl)-1H-indol-4-yl)amino]-1λ^6-thiane-1,1-dione] | +++ (+++ = 5 μM ≤ SC150 < 10 μM) |
| N#Cc1cccc(-c2cc3c(NC4CCS(=O)(=O)CC4)cccc3n2CC(F)(F)F)c1 [Compound 10A, 3-{4-[(1,1-dioxo-1λ^6-thian-4-yl)amino]-1-(2,2,2-trifluoroethyl)-1H-indol-2-yl}benzonitrile] | ++++ (++++ = 10 μM ≤ SC150 < 35 μM) |
| Cc1ccc(-c2cc3c(NC4CCS(=O)(=O)CC4)cccc3n2CC(F)(F)F)c(F)c1 [Compound 11A, 4-{[2-(2-fluoro-4-methylphenyl)-1-(2,2,2-trifluoroethyl)-1H-indol-4-yl]amino}-1λ^6-thiane-1,1-dione] | ++++ (++++ = 10 μM ≤ SC150 < 35 μM) |
| O=S1(=O)CCC(Nc2cccc3c2cc(-c2cccc(Cl)c2)n3CC(F)(F)F)CC1 [Compound 12A, 4-{[2-(3-chlorophenyl)-1-(2,2,2-trifluoroethyl)-1H-indol-4-yl]amino}-1λ^6-thiane-1,1-dione] | ++++ (++++ = 10 μM ≤ SC150 < 35 μM) |
| COc1cccc(-c2cc3c(NC4CCS(=O)(=O)CC4)cccc3n2CC(F)(F)F)c1 [Compound 13A, 4-{[2-(3-methoxyphenyl)-1-(2,2,2-trifluoroethyl)-1H-indol-4-yl]amino}-1λ^6-thiane-1,1-dione] | +++ (+++ = 5 μM ≤ SC150 < 10 μM) |
| O=S1(=O)CCC(Nc2cccc3c2cc(-c2ccc(Cl)cc2)n3CC(F)(F)F)CC1 [Compound 14A, 4-{[2-(4-chlorophenyl)-1-(2,2,2-trifluoroethyl)-1H-indol-4-yl]amino}-1λ^6-thiane-1,1-dione] | ++++ (++++ = 10 μM ≤ SC150 < 35 μM) |
